Measurements reported in patent US20240384268A1, “Oligonucleotides” (Hudson Institute of Medical Research, priority 2021, published 2024).
In the oligonucleotide strings, read from the 5' end, every base follows the letter of its sugar. An asterisk marks phosphorothioate; unmarked linkages are phosphodiester. Other units and linkages are bracketed, terminal groups are in braces. A string of capitals states the bases alone. d = 2'-deoxy (DNA); m = 2'-O-methyl

Target: T1, human TLR7 (Homo sapiens, UniProt Q9NYK1)
T1 construct: HA; host or cells: 293XL-hTLR7-HA (HEK293)
T1 sequence (Q9NYK1 27-1049): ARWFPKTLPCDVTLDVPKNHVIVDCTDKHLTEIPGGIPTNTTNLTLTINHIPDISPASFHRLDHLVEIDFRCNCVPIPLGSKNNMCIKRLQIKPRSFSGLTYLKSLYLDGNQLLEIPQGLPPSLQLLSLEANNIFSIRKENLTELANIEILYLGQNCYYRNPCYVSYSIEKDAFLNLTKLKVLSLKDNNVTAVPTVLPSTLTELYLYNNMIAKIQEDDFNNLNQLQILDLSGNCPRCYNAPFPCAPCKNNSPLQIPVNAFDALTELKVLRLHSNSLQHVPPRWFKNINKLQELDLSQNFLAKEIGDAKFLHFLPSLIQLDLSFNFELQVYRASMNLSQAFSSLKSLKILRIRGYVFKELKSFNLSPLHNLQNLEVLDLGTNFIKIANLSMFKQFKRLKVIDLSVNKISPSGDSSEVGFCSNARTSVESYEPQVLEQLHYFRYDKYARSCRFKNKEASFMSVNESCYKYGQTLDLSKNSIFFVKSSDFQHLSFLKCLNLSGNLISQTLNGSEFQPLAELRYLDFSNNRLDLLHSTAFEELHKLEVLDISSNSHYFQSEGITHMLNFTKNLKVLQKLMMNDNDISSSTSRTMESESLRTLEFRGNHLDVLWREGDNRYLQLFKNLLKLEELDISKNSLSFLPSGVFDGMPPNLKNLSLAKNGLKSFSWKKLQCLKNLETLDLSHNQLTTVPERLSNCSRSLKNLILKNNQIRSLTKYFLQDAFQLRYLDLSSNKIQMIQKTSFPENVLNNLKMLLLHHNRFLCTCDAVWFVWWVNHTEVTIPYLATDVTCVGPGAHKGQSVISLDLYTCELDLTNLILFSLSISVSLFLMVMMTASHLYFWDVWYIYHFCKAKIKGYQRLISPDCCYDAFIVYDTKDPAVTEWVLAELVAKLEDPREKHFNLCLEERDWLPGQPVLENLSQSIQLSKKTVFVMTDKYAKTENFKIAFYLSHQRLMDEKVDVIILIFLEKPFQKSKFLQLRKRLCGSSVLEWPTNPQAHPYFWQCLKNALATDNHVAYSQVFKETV
Assay: HEK-TLR7 NF-κB-luciferase reporter, R848 stimulation
Format: cell-based
Conditions: for TLR7 100 nM (averaged NF-κB-Luciferase level relative to R848 condition): ASO 100 nM; for TLR7 100 nM (averaged NF-κB-Luciferase level relative to R848 condition) / TLR7 500 nM (averaged NF-κB-Luciferase level relative to R848 condition): relative to R848 only, given as fraction; for TLR7 500 nM (averaged NF-κB-Luciferase level relative to R848 condition): ASO 500 nM; for TLR7 400 nM: 3mer 2'OMe ASO at 400 nM; for TLR7 400 nM / TLR7 2 uM / inhibition of TLR7 by 3-mer 2′OMe oligos (in words) / inhibition of R848 sensing by TLR7, short pre-treatment (in words) / IC50: HEK-TLR7; for TLR7 400 nM / TLR7 2 uM: value relative to Ligand only = 1.000, NT = 0.000; for TLR7 2 uM: 3mer 2'OMe ASO at 2 uM; for inhibition of TLR7 by 3-mer 2′OMe oligos (in words): 400 nM and 2 μM 3-mer, ~30 min, R848 1 μg/ml; for inhibition of R848 sensing by TLR7, short pre-treatment (in words): 100-500 nM oligo 20-50 min before R848 1 μg/ml; for IC50: oligo ~30-50 min before 1 μg/ml R848 overnight, read-out: IC50 (R848 sensing by TLR7)

Substance	TLR7 400 nM	TLR7 2 uM	further results
TGATGGCCTCCCATCT (antisense; LNA-modified, pattern not given here) [HPRT LNA-332 V1]			TLR7 100 nM (averaged NF-κB-Luciferase level relative to R848 condition): 0.657; TLR7 500 nM (averaged NF-κB-Luciferase level relative to R848 condition): 0.153
TGCACACTTCGTACCC (antisense; LNA-modified, pattern not given here) [CAMSAP1-4916 LNA V1]			TLR7 100 nM (averaged NF-κB-Luciferase level relative to R848 condition): 0.806; TLR7 500 nM (averaged NF-κB-Luciferase level relative to R848 condition): 0.299
TGGCCTCCCATCTCCT (antisense; LNA-modified, pattern not given here) [HPRT LNA-329 V1]			TLR7 100 nM (averaged NF-κB-Luciferase level relative to R848 condition): 0.877; TLR7 500 nM (averaged NF-κB-Luciferase level relative to R848 condition): 0.217
TGTGATGGCCTCCCAT (antisense; LNA-modified, pattern not given here) [HPRT LNA-334 V1]			TLR7 100 nM (averaged NF-κB-Luciferase level relative to R848 condition): 0.315; TLR7 500 nM (averaged NF-κB-Luciferase level relative to R848 condition): 0.090
TTCGTGGGGTCCTTTT (antisense; LNA-modified, pattern not given here) [HPRT LNA-661 V1]			TLR7 100 nM (averaged NF-κB-Luciferase level relative to R848 condition): 0.487; TLR7 500 nM (averaged NF-κB-Luciferase level relative to R848 condition): 0.178
TTTTGGCTGGGATCAA (antisense; LNA-modified, pattern not given here) [CAMSAP1-4697 LNA KL]			TLR7 100 nM (averaged NF-κB-Luciferase level relative to R848 condition): 0.564; TLR7 500 nM (averaged NF-κB-Luciferase level relative to R848 condition): 0.305
UAA (mU*mA*mA)	1.126	1.029	
UAC (mU*mA*mC)	1.161	1.003	
UAG (mU*mA*mG)	1.158	0.918	
UAU (mU*mA*mU)	1.086	0.935	
UCC (mU*mC*mC)	1.166	0.958	
UCU (mU*mC*mU)	1.196	0.956	
UGC (mU*mG*mC)	1.057	0.782	
UGU (mU*mG*mU)	1.108	0.984	
UUA (mU*mU*mA)	0.997	1.042	
UUC (mU*mU*mC)	0.536	0.642	
UUG (listed as RNA, chemistry not fully specified)	0.945	1.074	
UUU (mU*mU*mU)	0.861	1.084	
dA*dA*dA (DNA AAA; listed as DNA, chemistry not fully specified)	1.352	0.867	
dA*dA*dC (DNA AAC; listed as DNA, chemistry not fully specified)	1.019	0.770	
dA*dA*dG (DNA AAG; listed as DNA, chemistry not fully specified)	1.247	0.876	
dA*dC*dA (DNA ACA; listed as RNA, chemistry not fully specified)	1.234	0.831	
dA*dG*dA (DNA AGA; listed as DNA, chemistry not fully specified)	1.219	0.795	

Substance	TLR7 400 nM	TLR7 2 uM	further results
dA*dG*dC (DNA AGC; listed as DNA, chemistry not fully specified)	1.401	0.726	
dC*dA*dA (CAA; listed as DNA, chemistry not fully specified)	1.175	0.787	
dC*dA*dC (CAC; listed as RNA, chemistry not fully specified)	1.330	0.932	
dC*dC*dA (CCA; listed as DNA, chemistry not fully specified)	1.270	0.780	
dC*dC*dC (CCC; listed as DNA, chemistry not fully specified)	1.196	0.993	
dC*dC*dG (CCG; listed as DNA, chemistry not fully specified)	1.227	1.006	
dC*dG*dA (CGA; listed as DNA, chemistry not fully specified)	1.112	0.907	
dG*dC*dC [GCC]	1.360	0.645	
dG*dC*dG [GCG]	1.185	0.627	
mAmUmC (mA*mU*mC) [AUC, 3-mer 2′OMe PS oligo]	0.950	0.430	inhibition of TLR7 by 3-mer 2′OMe oligos (in words): inhibiting TLR7
mC*mG*mU*T*T*C*C*C*C*C*C*C*C*C*C*C*C*C*C*C (CGUTTCCCCCCCCCCCCCCC; antisense; sugars from the 5' end m3 d17, all phosphorothioate, methylation of C not given here) [[C2]Mut1-v3-dC]			inhibition of R848 sensing by TLR7, short pre-treatment (in words): significantly altered TLR7 inhibition
mCmUmU (antisense mC*mU*mU) [660-3]	1.277	0.913	
mG*mC*mG*mG*mU*A*T*C*C*A*T*G*T*C*C*mC*mA*mG*mG*mC (mG*mC*mG*mG*mU*dA*dT*dC*dC*dA*dT*dG*dT*dC*dC*mC*mA*mG*mG*mC; antisense) [C2-Mut1]			IC50: 44 nM
mG*mG*mU*A*T*C*C*C*C*C*C*C*C*C*C*C*C*C*C*C (GGUATCCCCCCCCCCCCCCC; antisense; sugars from the 5' end m3 d17, all phosphorothioate, methylation of C not given here) [[C2]Mut1-dC]			inhibition of R848 sensing by TLR7, short pre-treatment (in words): significantly higher TLR7 inhibition than dC20
mGmAmU (mG*mA*mU) [GAU, 3-mer 2′OMe PS oligo]	1.406	0.580	inhibition of TLR7 by 3-mer 2′OMe oligos (in words): selectively inhibited TLR7 sensing; IC50: 300 nM
mGmUmA (GUA; all 2'-O-methyl, backbone not given here; further chemistry not fully specified) [shortMut1-3b]	0.702	0.239	inhibition of TLR7 by 3-mer 2′OMe oligos (in words): inhibiting TLR7
mGmUmC (mG*mU*mC) [GUC, 3-mer 2′OMe PS oligo]	0.140	0.017	inhibition of TLR7 by 3-mer 2′OMe oligos (in words): most potent 3-mer inhibiting TLR7
mGmUmG (mG*mU*mG) [GUG, 3-mer 2′OMe PS oligo]	0.449	0.072	inhibition of TLR7 by 3-mer 2′OMe oligos (in words): inhibiting TLR7
mGmUmU (mG*mU*mU) [GUU, 3-mer 2′OMe PS oligo]	0.781	0.119	inhibition of TLR7 by 3-mer 2′OMe oligos (in words): inhibiting TLR7
mUmCmA (mU*mC*mA) [UCA, 3-mer 2′OMe PS oligo]	1.122	0.819	
mUmCmG (antisense mU*mC*mG) [660-3b]	0.979	0.982	
mUmGmA (mU*mG*mA) [UGA, 3-mer 2′OMe PS oligo]	1.126	0.831	
mUmGmG (mU*mG*mG) [UGG, 3-mer 2′OMe PS oligo]	1.029	0.989	
